Measured values published in patent US20230066268A1, “INDAZOLE DERIVATIVES AND METHODS OF USE THEREOF FOR THE TREATMENT OF HERPES VIRUSES” (Merck Sharp & Dohme LLC, priority 2019, published 2023).
Read-outs that look alike come from different tables or passages of the source.

What was measured:
[1] = molecular target: T1, Human cytomegalovirus DNA polymerase (Human cytomegalovirus, UniProt P08546); test: CMV polymerase assay (AlphaLISA); format: biochemical; conditions: polymerase assay of Example 27, HCMV polymerase 0.2 nM
T1 construct: made in house; host or cells: SF21 insect cells (baculovirus vector)
Protocol: (§1) CMV and VZV Polymerase Assays
(§2) Human cytomegalovirus and varicella zoster virus DNA polymerases were expressed via baculovirus vector in SF21 cells and purified. Heterodimeric nucleic acid substrate used in the herpesvirus polymerase reactions were generated by annealing a 59-mer template to a 17-mer digoxigenin-labeled primer. Polymerase (HCMV final concentration of 0.2 nM; VZV final concentration of 0.4 nM) was combined with an inhibitor compound or DMSO in assay buffer (10 mM HEPES, pH 7.5, 25 mM KCl, 25 mM NaCl, 5 mM MgCl2, 5% glycerol, 0.67 mg/mL bovine serum albumin, and 1 mM tris(2-carboxyethyl)phosphine)), and this mixture was pre-incubated for 30 minutes at room temperature in 384-well microtiter plates. The polymerization reaction was initiated by the addition of template/primer substrate (final concentration: 1.6 nM) and dNTPs (final concentration: 24 nM dCTP, 24 nMdGTP, 16 nM dATP, 16 nM dTTP, and 0.8 nM biotin-dUTP). After a 60 minute incubation period at 37° C., the reactions were terminated using quench buffer (25 mM HEPES pH 7.5, 100 mM NaCl, 0.25% Tween-20, 12 mM EDTA, and 1 mg/mL bovine serum albumin). Incorporation of biotinylated UTP was detected with 2.5-5 μg/mL anti-DIG AlphaLISA acceptor beads and 5-10 μg/mL streptavidin AlphaLISA donor beads (PerkinElmer). Compound effects were normalized to the window defined by the controls (DMSO only and pre-quenched wells) and were fit using a 4-parameter algorithm to report an IC50.

[2] = molecular target: T2, varicella zoster virus DNA polymerase (Varicella-zoster virus, UniProt P09252); test: VZV polymerase assay (AlphaLISA); format: biochemical; conditions: polymerase assay of Example 27, VZV polymerase 0.4 nM
T2 construct: made in house; host or cells: SF21 insect cells (baculovirus vector)
Protocol: as §1, §2

[3] = tested on: HCMV Strain AD169 in MRC-5 cells; test: CMV cell assay; format: cell-based
Protocol: MRCS and Vero cells were obtained from ATCC and were maintained at 37° C./5% CO2/90% relative humidity in Minimal Essential Medium with 10% fetal bovine serum, […], 100 units/mL penicillin and 100 ug/mL streptomycin. Assay plates were prepared by dispensing compounds dissolved in DMSO into wells of 384 well collagen-coated plates using an ECHO acoustic dispenser. Each test compound was tested in a 10-point, serial 3-fold dilution. Controls included uninfected cells and infected cells treated only with DMSO. Assays were initiated by mixing selected cells, in suspension, with virus, and dispensing 50 μl/well infected cells to pre-plated compounds. Plates were incubated at 37° C./5% CO2/90% relative humidity for ˜72 hours to permit genomic replication, and infected cells were lysed by the addition of an equal volume of lysis buffer (10 mM Tris-HCl, pH8, 50 mM KCl, 2 mM MgCl2, 0.45% NP-40, 0.45% Tween-20, and 100 μg/mL proteinase K). An aliquot of the lysate was then transferred to a 384-well PCR plate and incubated at 56° C. for 1 hour, and then at 95° C. for 10 minutes. Levels of a viral gene were measured in 10 ul qPCR assays using TaqMan® Gene Expression Master Mix (Applied Biosystems) and an 7900HT Fast Real-Time PCR System with 384-Well Block Module. 7-point, serial 10-fold dilutions of a plasmid standard were run on each plate to generate a standard curve, and genome copies numbers were calculated by plotting experimental Ct onto linear regression of the standard curve. Compound effects on viral genome copy number were normalized to the window defined by the controls. Calculated % effects were fit using a 4-parameter algorithm, and EC50 was reported.
HCMV: Strain AD169 was assayed in MRC-5 cells and was used at 0.05-0.1 pfu/cell. The assays were performed in either growth media or in the same media with 50% fetal bovine serum. Primer-probe set was Thermo Fisher Assay ID=AIFATFK. HSV-1: Strain F was assayed in Vero or MRCS cells and was used at 0.0005-0.004 pfu/cell in growth medium. Primer-probe set was Thermo Fisher Assay ID=AIBJZIB. HSV-2: Strain G was assayed in Vero or MRCS cells and was used at 0.004-0.4 pfu/cell in growth medium. Primer-probe set was Thermo Fisher Assay ID=AICSXOJ.

[4] = tested on: HSV-1, strain F in Vero cells; test: HSV CPE assay, HSV-1; format: cell-based
Protocol: (§3) Vero cells were maintained at 37° C./5% CO2/90% relative humidity in Dulbecco's Modified Eagle's Medium with 10% fetal bovine serum, […], 100 units/mL penicillin and 100 ug/mL streptomycin. For this assay, Vero cells (maintained at 37° C./5% CO2/90% relative humidity in Dulbecco's Modified Eagle's Medium with 10% fetal bovine serum, […], 100 units/mL penicillin and 100 μg/mL streptomycin) were seeded in 96-well microtiter plates and incubated for about 15 hours. They were then infected with HSV-1, strain F, or with HSV-2, strain G, at a multiplicity of infection known to result in 85-95% loss of cell viability during the assays, in the same media with 2% fetal bovine serum. Test compounds were dissolved in DMSO, and 6 point serial 10-fold dilutions in DMSO were prepared. Test compounds were added to infected cells, and the plates were incubated at 37° C./5% CO2/90% relative humidity for 5 days. Each plate contains cell control wells (cells only), virus control wells (cells plus virus), drug colorimetric control wells (drug only), background control wells (media only) and experimental wells (drug plus cells plus virus). Cytoprotection was assessed by the addition of Celltiter®96 Reagent (Promega, Madison, Wis.), according to manufacturer's recommendations. % cytopathic effect (CPE) reduction was calculated and IC50 (concentration inhibition virus replication by 50%) was reported.

[5] = tested on: HSV-2, strain G in Vero cells; test: HSV CPE assay, HSV-2; format: cell-based
Protocol: as §3

[6] = Human betaherpesvirus 5, AD169, MRC5, read-out: CMV Cell^b (EC50), footnote b: assay described in Example 25
[7] = Human alphaherpesvirus 1, Vero, 120 h, read-out: HSV1 Cell^b (EC50), unstarred values: CPE assay of Example 25, Vero cells, 5 days
[8] = Human alphaherpesvirus 2, Vero, 120 h, read-out: HSV2 Cell^b CPE(EC50), unstarred values: CPE assay of Example 25, Vero cells, 5 days
[9] = read-out: HSV1 Cell^b (EC50), unstarred values: CPE assay of Example 25, Vero cells, 5 days
[10] = Human betaherpesvirus 5, AD169, MRC5, footnote b: assay described in Example 25, read-out: CMV Cell^b (EC50)
[11] = Human alphaherpesvirus 1, 120 h, unstarred values: CPE assay of Example 25, Vero cells, 5 days, read-out: HSV1 Cell^b (EC50)
[12] = Human alphaherpesvirus 2, 120 h, unstarred values: CPE assay of Example 25, Vero cells, 5 days, read-out: HSV2 Cell^b CPE(EC50)

T2 sequence (P09252 whole entry): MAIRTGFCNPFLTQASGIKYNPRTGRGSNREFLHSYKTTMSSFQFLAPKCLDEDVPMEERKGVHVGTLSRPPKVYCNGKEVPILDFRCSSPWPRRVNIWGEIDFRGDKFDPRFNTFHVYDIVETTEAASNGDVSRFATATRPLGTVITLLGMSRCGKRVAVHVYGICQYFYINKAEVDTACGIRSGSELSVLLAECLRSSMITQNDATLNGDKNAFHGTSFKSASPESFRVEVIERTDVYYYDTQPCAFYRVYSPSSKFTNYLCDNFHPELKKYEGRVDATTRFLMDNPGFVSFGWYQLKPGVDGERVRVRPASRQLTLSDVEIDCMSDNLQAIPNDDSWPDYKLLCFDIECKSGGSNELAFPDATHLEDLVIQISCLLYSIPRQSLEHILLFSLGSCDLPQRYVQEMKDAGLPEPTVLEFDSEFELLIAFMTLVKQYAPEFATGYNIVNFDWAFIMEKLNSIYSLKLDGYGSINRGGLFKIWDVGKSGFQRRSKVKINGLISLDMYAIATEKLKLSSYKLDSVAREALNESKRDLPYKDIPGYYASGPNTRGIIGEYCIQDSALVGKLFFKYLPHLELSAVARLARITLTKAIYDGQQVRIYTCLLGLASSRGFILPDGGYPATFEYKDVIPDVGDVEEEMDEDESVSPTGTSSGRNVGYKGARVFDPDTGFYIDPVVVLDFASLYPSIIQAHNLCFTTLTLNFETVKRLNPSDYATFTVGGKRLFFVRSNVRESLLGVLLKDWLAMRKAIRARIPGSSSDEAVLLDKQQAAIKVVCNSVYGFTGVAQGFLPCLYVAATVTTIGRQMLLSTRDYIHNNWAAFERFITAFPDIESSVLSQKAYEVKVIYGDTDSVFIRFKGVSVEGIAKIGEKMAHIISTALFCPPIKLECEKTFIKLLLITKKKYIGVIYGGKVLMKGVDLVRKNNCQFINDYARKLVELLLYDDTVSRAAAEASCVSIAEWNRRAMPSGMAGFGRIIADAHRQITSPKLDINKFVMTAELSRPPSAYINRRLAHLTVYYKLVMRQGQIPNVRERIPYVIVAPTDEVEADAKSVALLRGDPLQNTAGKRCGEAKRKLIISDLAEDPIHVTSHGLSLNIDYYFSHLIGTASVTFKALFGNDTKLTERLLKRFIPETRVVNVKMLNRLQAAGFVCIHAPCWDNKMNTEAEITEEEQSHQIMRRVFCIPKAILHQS
T1 sequence (P08546 whole entry): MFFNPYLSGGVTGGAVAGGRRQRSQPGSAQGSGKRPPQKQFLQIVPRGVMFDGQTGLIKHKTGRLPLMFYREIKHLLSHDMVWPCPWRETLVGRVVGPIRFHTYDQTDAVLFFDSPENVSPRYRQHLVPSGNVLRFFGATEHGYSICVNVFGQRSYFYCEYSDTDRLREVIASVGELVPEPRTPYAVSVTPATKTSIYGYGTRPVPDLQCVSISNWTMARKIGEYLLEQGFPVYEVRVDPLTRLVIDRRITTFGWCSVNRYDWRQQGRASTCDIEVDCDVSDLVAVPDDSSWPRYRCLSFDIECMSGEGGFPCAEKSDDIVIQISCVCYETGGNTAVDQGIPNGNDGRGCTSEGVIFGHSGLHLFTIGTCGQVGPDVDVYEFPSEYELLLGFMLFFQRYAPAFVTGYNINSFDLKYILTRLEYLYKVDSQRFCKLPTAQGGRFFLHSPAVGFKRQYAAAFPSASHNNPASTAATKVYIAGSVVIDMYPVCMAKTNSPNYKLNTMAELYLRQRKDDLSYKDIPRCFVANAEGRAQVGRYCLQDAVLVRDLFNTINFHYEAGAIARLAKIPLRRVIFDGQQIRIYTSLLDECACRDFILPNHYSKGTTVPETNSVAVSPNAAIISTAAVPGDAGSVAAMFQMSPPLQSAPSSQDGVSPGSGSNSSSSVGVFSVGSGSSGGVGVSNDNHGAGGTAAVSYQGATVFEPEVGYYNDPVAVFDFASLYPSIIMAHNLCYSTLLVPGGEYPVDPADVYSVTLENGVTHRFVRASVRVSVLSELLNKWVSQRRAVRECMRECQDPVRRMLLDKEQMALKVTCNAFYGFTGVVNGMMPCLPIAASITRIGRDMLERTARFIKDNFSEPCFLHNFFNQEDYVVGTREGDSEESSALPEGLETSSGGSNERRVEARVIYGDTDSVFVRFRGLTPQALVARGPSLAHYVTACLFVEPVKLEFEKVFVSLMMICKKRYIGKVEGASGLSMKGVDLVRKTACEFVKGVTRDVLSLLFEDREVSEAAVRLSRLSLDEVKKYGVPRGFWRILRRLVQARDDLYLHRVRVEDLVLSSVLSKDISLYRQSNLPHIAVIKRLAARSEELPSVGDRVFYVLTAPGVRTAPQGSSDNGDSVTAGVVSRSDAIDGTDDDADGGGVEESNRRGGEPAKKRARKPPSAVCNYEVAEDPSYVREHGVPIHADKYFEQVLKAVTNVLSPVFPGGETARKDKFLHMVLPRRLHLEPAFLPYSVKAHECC

| SMILES | IC50 ([1]; CMV^a (IC50)) | IC50 ([2]; VZV^a (IC50)) | IC50 ([1]; read-out: CMV^a (IC50)) | IC50 ([2]; read-out: VZV^a (IC50)) | EC50 [3, 10] | further results |
| --- | --- | --- | --- | --- | --- | --- |
| Cc1c(N2CCn3nncc3C2)ccc2c(C(=O)NCc3ccc(Cl)cc3)nn(CCOCCO)c12 [Compound 5] | 33 nM | 12 nM |  |  |  | EC50 [3, 6]: 97 nM; EC50 [4, 7]: > 40000 nM; EC50 [5, 8]: 610 nM |
| Cc1c(N2CCn3nncc3C2)ccc2c(C(=O)NCc3ccc(C#N)cc3)nn(C[C@H](C)NC(=O)C(C)C)c12 [Compound 32] | 4.2 nM | 1.8 nM |  |  |  | EC50 [3, 6]: 60 nM; EC50 [4, 7]: 14000 nM; EC50 [5, 8]: 13000 nM |
| Cc1c(N2CCn3nncc3C2)ccc2c(C(=O)NCc3ccc(C#N)cc3)nn(CCC#N)c12 [Compound 1] | 53 nM | 13 nM |  |  |  | EC50 [3, 6]: 120 nM; EC50 [4, 7]: 1600 nM; EC50 [5, 8]: 2500 nM |
| Cc1c(N2CCn3nncc3C2)ccc2c(C(=O)NCc3ccc(Cl)cc3)nn(C3CCNC3)c12 (stereo not drawn) [Compound 6] | 45 nM | 19 nM |  |  |  | EC50 ([3]; read-out: CMV Cell^b (EC50), footnote b: assay described in Example 25): 110 nM; EC50 [4, 9]: > 40000 nM; EC50 ([5]; read-out: HSV2 Cell^b CPE(EC50), unstarred values: CPE assay of Example 25, Vero cells, 5 days): 3700 nM |
| Cc1c(CN2CCOCC2)cc(C)c2c1c(C(=O)NCc1ccc(Cl)cc1)nn2C [Compound 19] |  |  | 280 nM | 66 nM | 6100 nM | EC50 [4, 11]: 1800 nM; EC50 [5, 12]: 5300 nM |
| Cn1nc(C(=O)NCc2ccc(Cl)cc2)c2ccc(N3CCn4nncc4C3)nc21 [Compound 30] |  |  | 1600 nM | 3000 nM |  |  |
| Cc1nnn(C)c1COc1ccc2c(C(=O)NCc3ccc(Cl)cc3)nn(C[C@@H](C)O)c2c1F [Compound 12] | 7.1 nM | 1.6 nM |  |  |  | EC50 [3, 6]: 300 nM |
| Cn1nc(C(=O)NCc2ccc(Cl)cc2)c2cnc(N3CCn4nncc4C3)cc21 [Compound 28] |  |  | 810 nM | 250 nM | 7500 nM |  |
| Cn1nc(C(=O)NCc2ccc(Cl)cc2)c2c(O)c(CN3CCOCC3)ccc21 [Compound 20] |  |  | 390 nM | 66 nM | > 9900 nM | EC50 [4, 11]: > 40000 nM; EC50 [5, 12]: > 40000 nM |
| Cn1nc(C(=O)NCc2ccc(Cl)cc2)c2cc(CN3CCOCC3)ncc21 [Compound 29] |  |  | 2400 nM | 1600 nM |  |  |
| Cc1c(N2CCn3nncc3C2)ccc2c(C(=O)NCc3ccc(Cl)cc3)nn(C3CCNC3)c12 (stereo not drawn) [Compound 4] | 37 nM | 16 nM |  |  |  | EC50 [3, 6]: 85 nM; EC50 [4, 9]: 3100 nM; EC50 [5, 8]: 2100 nM |
| Cc1c(CN2CCOCC2)cc2c(C(=O)NCc3ccc(Cl)cc3)nn(C)c2c1C [Compound 22] |  |  | 580 nM |  | 4300 nM |  |
| O=C(NCc1ccc(Cl)cc1)c1n[nH]c2c(Cl)c(N3CCn4nncc4C3)ccc12 [Compound 7] |  |  | 22 nM | 5.1 nM | 120 nM | EC50 [4, 11]: 120 nM; EC50 [5, 12]: 200 nM |
| N#Cc1c(N2CCn3nncc3C2)ccc2c(C(=O)NCc3ccc(Cl)cc3)n[nH]c12 [Compound 11] |  |  | 23 nM | 3.7 nM | 93 nM | EC50 [4, 11]: 480 nM; EC50 [5, 12]: 700 nM |
| Cn1nc(C(=O)NCc2ccc(F)cc2)c2cc(CN3CCOCC3)ccc21 [Compound 26] |  |  | 3300 nM | 740 nM |  |  |
| Cc1c(CN2CCCS(=O)(=O)CC2)ccc2c1c(C(=O)NCc1ccc(Cl)cc1)nn2C [Compound 18] |  |  | 120 nM | 160 nM | 2900 nM | EC50 [4, 11]: 6300 nM; EC50 [5, 12]: 6100 nM |
| Cn1cc(C(=O)NCc2ccc(Cl)cc2)c2ccc(N3CCn4nncc4C3)cc21 [Compound 31] |  |  | 190 nM | 120 nM |  |  |
| Cn1nc(C(=O)NCc2ccc([N+](=O)[O-])cc2)c2cc(CN3CCOCC3)ccc21 [Compound 23] |  |  | 990 nM | 180 nM | 12000 nM |  |
| Cn1nc(C(=O)NCc2ccc(Br)cc2)c2cc(CN3CCOCC3)ccc21 [Compound 24] |  |  | 920 nM | 220 nM | > 9900 nM |  |
| Cc1c(NCc2cnnn2C)ccc2c(C(=O)NCc3ccc(Cl)cc3)n[nH]c12 [Compound 13] |  |  | 17 nM | 5 nM | 320 nM |  |
